# Patent US7420033B2, “Composition of lactoferrin related peptides and uses thereof” (Agennix, Inc., priority 2004, dated 2008)
# “And” between values parts separate entries of the source, which are not always exact repeats. Equal values may be shown once. Where no end group is shown, it is not given here.
# What was measured:
# hind paw edema = assay: Carrageenan mouse paw edema model of inflammation; format: in vivo, ICR derived mice; settings: PO once daily × 5
# Method: Test substance LPF-35 at 5 mg/kg and reference agent Aspirin at 100 mg/kg were administered orally once daily for 5 consecutive days to groups of 8 ICR (4 male and 4 female) derived mice weighing 22±2 gms. One hour after 5th dose, right hind paw was injected with carrageenan (0.05 ml of 1% suspension intraplantar). The hind paw edema was measured 4 hours later. Convention: reduction of hind paw edema by 30 percent or more indicates significant acute anti-inflammatory activity. Each animal was fasted overnight before Carrageenan challenge.
# heart allograft = assay: Heart allograft survival model in rats; format: in vivo, rats (Wistar Furh recipients, Baffalo donors); settings: FK506 alone, 0.8 mg/kg oral gavage once daily days 0 to +14; n=10
# Method: The activity of LPF-35 in combination with FK506 was compared with FK506 alone in a heart allograft survival model in rats. Wistar Furh (WF; RT1) recipients of heart allograft from Baffalo donors (BUF; RT1b) were administered oral LPF-35 (5 mg/kg) plus FK506 (0.8 mg/kg), FK506 alone or placebo. The results are presented as a mean±standard deviation (MST±SD). Significance between groups was calculated using Student T-test with p<0.05 considered as significant. In group # 1 control WF recipients of BUF heart allografts (n=5) were untreated and heart allografts were rejected in an acute fashion within 6.4±0.5 days. In group # 2 WF recipients of BUF heart allografts (n=10) were treated daily once (days 0 to +14) with 0.8 mg/kg FK506 delivered by oral gavage. This protocol was effective in prolonging the survival of heart allografts to a MST of 22.3±6.7 days (p=0.0002). […] In group # 3 WF recipients of BUF heart allografts (n=6) were treated daily once (days 0 to +14) with 0.8 mg/kg FK506 delivered by oral gavage in combination with LPF-35 daily for 14 days. This protocol was effective in prolonging the survival of heart allografts to a MST of 49.5±28 days (p=0.0077). […] An effect of reducing organ transplant rejection is indicative of beneficial effects in GVHD.
# [1] = test system: clinical bacterial isolates; assay: Peptide MICs by NCCLS broth microdilution; format: cell-based; settings: geometric mean MIC; 742 clinical bacterial isolates representing 35 species
# Method: The novel peptides described in this application have shown substantial anti-microbial activity. Peptide MICs were determined by the broth microdilution method recommended by the NCCLS (M7-A5). In each medium, the concentrations of peptide were serial two-fold dilutions ranging from 8192 to 8 μg/mL. Mueller-Hinton broth and Peptone broth were used throughout, using the following media: 1) 5rCAMHB, 2) CAMHB supplemented with 3% lysed horse blood, 3) Haemophilus test medium, 4) peptone broth at pH 7, 5) peptone broth at pH 7.5, 6) peptone broth supplemented with 25 μg/mL calcium and 12.5 μg/mL magnesium, 7) peptone broth supplemented with 1.5 g/L soluble starch. On each day of testing, colony counts were performed on the broth from the growth control well immediately after inoculation from two randomly selected isolates to assure appropriate inoculum density. A total of 742 clinical bacterial isolates representing 35 species were tested.
# Ascaris suum antigen = assay: Sheep model of allergic asthma; format: in vivo; settings: lung resistance and carbachol response, FIG. 5, FIG. 6
# Method: Peptides LPF-32 and LPF-35 were both tested in an established sheep model of allergic asthma. […] Allergic sheep previously characterized as dual responders (displaying early and late phases of bronchoconstriction), were administered peptide followed by inhalation challenge with Ascaris suum antigen.
# Baseline dose response curves to aerosolized carbachol were obtained in all sheep 1-3 days before the start of dosing. Sheep were dosed with peptide or placebo by nebulization or oral gavage in the inhaled and oral experiments respectively. The sensitized sheep were then challenged with Ascaris suum antigen to produce early and late airway responses, as measured by mean lung resistance (pulmonary flow resistance, RL). Mean lung resistance was measured using tracheal and pleural pressure catheters connected to a differential pressure transducer. […]
# To assess airway responsiveness, cumulative dose response curves to carbachol were obtained, as measured by specific lung resistance, or SRL (SRL=RL * thoracic gas volume). […] Airway hypersensitivity (AH) was determined by calculating the cumulative carbachol dose that increased SRL by 400% over the post-saline value by interpolation from the dose response curve. […]
# MIP3-α = MIP3-α expression in hepatocytes, ELISA; format: cell-based, human; settings: 0.04 and 0.2 mg/mL, supernatant at 2 h and 4 h; FIG. 9
# Source text: Still further, it is envisioned that lactoferrin related peptides stimulate production of MIP-3alpha from hepatocytes. Lactoferrin is known to contribute to the defense systems of the body through its anti-microbial properties. […] The innate immune system is the ‘first line of defense’ of the body against hostile environments and comprise of a variety of effector and cellular mechanisms. This innate immune response is initially likely mediated by the ‘detection system’ of receptors known to be present on the surface of the gut epithelial cells, such as pattern recognition receptors, IL-1 receptor and general ‘scavenger’ receptors. These receptors recognize and respond to specific structural features of the presented molecules. As a result, various intracellular signaling pathways may be initiated (e.g., NFκB, Wnt, etc.) that result in the overall orchestration of the cellular response of the body to the prevailing biological situation (e.g., infection). RhLF and peptides derived from rhLF elicit a similar response of human hepatocytes in vitro in terms of producing an important chemokine—namely MIP-3-alpha. It is surmised that some general structural features that are responsible for the biological response to rhLF are retained in peptides that are structurally related to the parent molecule (rhLF).
# MIP3-α has been associated with the stimulation of innate immune responses. […]
Compound,MIC GeoMean [1],further results
CC(=O)Oc1ccccc1C(=O)O [Aspirin],–,"Paw Volume LP (hind paw edema; LP, average n=8): 12.38 ×0.01 ml; Paw Volume Diff. (hind paw edema; RP minus LP): 5.00 ×0.01 ml; % Inhibition (hind paw edema; hind paw edema vs vehicle): 32%; Paw Volume RP (hind paw edema; right hind paw injected with carrageenan, 4 hours later, average n=8): 17.38 ×0.01 ml"
C=CC[C@@H]1/C=C(\C)C[C@H](C)C[C@H](OC)[C@H]2O[C@@](O)(C(=O)C(=O)N3CCCC[C@H]3C(=O)O[C@H](/C(C)=C/[C@@H]3CC[C@@H](O)[C@H](OC)C3)[C@H](C)[C@@H](O)CC1=O)[C@H](C)C[C@@H]2OC [FK506],–,"survival of heart allografts, MST ± SD (heart allograft): 22.3±6.7 days"
RRRRRRSVQWAAVSQPIATEAFQWQRNMRKRRR [LPF-25],66 µg/mL,–
RRRRRRSVQWAAVSQPIATKAFQWQRNMRKRRR [LPF-36],24 µg/mL,–
RRRRRRSVQWQAVSQPEATKQFQWQRNMRKRRR [LPF-31],41 µg/mL,–
RRRRRRSVQWQAVSQPGATKQFQWQRNMRKRRR [LPF-32],25 µg/mL,late phase inflammation and airway hyperresponsiveness (Ascaris suum antigen): substantially inhibit
RRRRRRSVQWQAVSQPIATEQFQWQRNMRKRRR [LPF-24],43 µg/mL and 51 µg/mL,–
RRRRRRSVQWQAVSQPIATIQFQWQRNMRKRRR [LPF-35],15 µg/mL,expression of MIP3-α in Hepatocytes (MIP3-α): stimulates
RRRRRRSVQWQAVSQPIATKQFQWQRNMRKRRR [LPF-33],28 µg/mL,–
RRRRRRSVQWQAVSQPQATGQFQWQRNMRKRRR [LPF-34],32 µg/mL,–
